Source: patent publication US20080286815A1, “SPECTROPHOTOMETRIC ASSAY FOR HUMAN HISTONE DEACETYLASE 8” (THE UNIVERSITY OF AKRON, priority 2007, published 2008)
Ends that are not written are not given here.

Key:
[1] = tested on: HeLa nuclear extracts enriched in HDAC1 and 2; experiment: HPLC-based and DTNB-based assays with HeLa nuclear extracts; format: biochemical, human; details: for dethioacetylation by HeLa nuclear extracts: HDAC8 replaced with HeLa nuclear extracts, HPLC-based and DTNB-based assay formats; for kobs (deacetylation by HeLa nuclear extracts): 30 min; for kobs (deacetylation by HeLa nuclear extracts) / substrate turnover: HPLC analysis; for substrate turnover: at 30 min
Protocol: (§1) HPLC-based enzymatic assay. The HPLC data shown in FIG. 4 was generated using the following procedure. The HDAC8-catalyzed dethioacetylation reaction was performed in the same HDAC8 assay solution as above-described, except that no thioacetic acid was added but purified HDAC8 and its substrate (i.e. the above-described peptide ii) were added to final concentrations of 375 nM and 0.3 mM, respectively. An enzymatic reaction was initiated by the addition of HDAC8 at room temperature and was allowed to be incubated at room temperature until quenched at different time points with the following stop solution: 3.2 M guanidinium chloride in 100 mM of sodium phosphate (pH 6.8). One portion (40 uL) of the HDAC8 assay mixture was quenched with 80 uL of the above stop solution, and was analyzed as set forth above by RP-HPLC with a C18 analytical column (100 Å, 0.46×25 cm), eluting with the following gradient of double deionized water containing 0.05% (v/v) trifluoroacetic acid (mobile phase A) and acetonitrile containing 0.05% (v/v) trifluoroacetic acid (mobile phase B): linear increase from 0% B to 35% B from 0-40 min (1 mL/min), and ultraviolet (UV) monitoring at 214 nm. The enzymatically formed dethioacetylated product (i.e. the above-referenced peptide i) was confirmed by its comigration with the chemically synthesized authentic sample and by mass spectrometric analysis with MALDI-TOF, and was quantified by HPLC peak integration and comparison with that of the synthetic authentic sample. The same assay protocol was used when the HeLa nuclear extracts were used instead of human HDAC8. Nearly same assay protocols were used when purified HDAC1 and HDAC2 were employed instead of HDAC8, with the following exceptions: i) For HDAC1 assays, 50 mM Tris.HCl (pH 8.0) was used instead of 25 mM Tris.HCl (pH 8.0); ii) HDAC2 assays were performed at 30° C. instead of RT; iii) HDAC1 and HDAC2 assay solutions were all quenched with the following stop solution: 1.0 M HCl and 0.16 M acetic acid. These changes were instituted to more clearly assess the selectivity.
DTNB-based enzymatic assay. The DTNB data shown in FIG. 4 was generated using the following procedure. A second portion (300 µL) of the above HDAC8 assay mixture was quenched with 600 µL of the stop solution: 3.2 M guanidinium chloride in 100 mM of sodium phosphate (pH 6.8), and was analyzed by the DTNB-based assay procedure according to the invention, i.e. 60 min after the quench and DTNB (100 µL) addition, A412 was recorded for each sample derived at different time points of the same assay reaction. Again, the same assay protocol was used when the HeLa nuclear extracts were used instead of human HDAC8. To measure the kinetic parameters for the thioacetyl-lysine p53 peptide as an in vitro HDAC8 substrate, all the assay reactions contained 375 nM of HDAC8, a range of substrate concentrations varied around the Km value, and were allowed to proceed at room temperature for 1 hour before quenching. Reaction velocities were determined under initial condition (substrate turnover <10%). This experiment was performed twice, and each duplicate measurement agreed within 20%. By using a non-linear least squares approach with the computer program Kaleidagraph (Reading, Pa., USA), kinetic parameters (kcat and Km) were derived from the Michaelis-Menten plot based on the experimental data.
Assay with HeLa nuclear extracts. In order to examine the selectivity of our newly developed DTNB-based spectrophotometric assay among different classical HDAC enzymes, we initially performed both the HPLC-based and the DTNB-based assays with the HeLa nuclear extracts enriched in HDAC1 and 2. The procedures for the HDAC8 assay were followed.

[2] = molecular target: purified human HDAC1 (Homo sapiens, UniProt Q13547); experiment: HPLC-based assay with purified HDAC1; format: biochemical; details: for dethioacetylation by HDAC1: purified HDAC1, HPLC-based assay format
Sequence of purified human HDAC1 (Q13547 whole entry): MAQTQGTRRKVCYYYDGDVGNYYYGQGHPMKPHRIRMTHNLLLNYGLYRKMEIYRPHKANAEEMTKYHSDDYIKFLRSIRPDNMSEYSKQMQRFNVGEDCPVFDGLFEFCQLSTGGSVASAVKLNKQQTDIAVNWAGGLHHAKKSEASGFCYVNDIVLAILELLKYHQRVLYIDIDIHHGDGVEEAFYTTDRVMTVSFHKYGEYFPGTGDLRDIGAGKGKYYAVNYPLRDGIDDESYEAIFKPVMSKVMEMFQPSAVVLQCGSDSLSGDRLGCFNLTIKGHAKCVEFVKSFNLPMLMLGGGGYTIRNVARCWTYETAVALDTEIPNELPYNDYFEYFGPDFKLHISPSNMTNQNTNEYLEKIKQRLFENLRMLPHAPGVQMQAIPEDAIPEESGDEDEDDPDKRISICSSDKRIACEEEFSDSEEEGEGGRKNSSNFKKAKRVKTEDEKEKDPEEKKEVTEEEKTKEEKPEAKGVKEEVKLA
Protocol: as §1, with “selectivity. […]” for “selectivity.”

[3] = molecular target: purified human HDAC2 (Homo sapiens, UniProt Q92769); experiment: HPLC-based assay with purified HDAC2; format: biochemical; details: for dethioacetylation by HDAC2: purified HDAC2, 30° C., HPLC-based assay format
Sequence of purified human HDAC2 (Q92769 whole entry): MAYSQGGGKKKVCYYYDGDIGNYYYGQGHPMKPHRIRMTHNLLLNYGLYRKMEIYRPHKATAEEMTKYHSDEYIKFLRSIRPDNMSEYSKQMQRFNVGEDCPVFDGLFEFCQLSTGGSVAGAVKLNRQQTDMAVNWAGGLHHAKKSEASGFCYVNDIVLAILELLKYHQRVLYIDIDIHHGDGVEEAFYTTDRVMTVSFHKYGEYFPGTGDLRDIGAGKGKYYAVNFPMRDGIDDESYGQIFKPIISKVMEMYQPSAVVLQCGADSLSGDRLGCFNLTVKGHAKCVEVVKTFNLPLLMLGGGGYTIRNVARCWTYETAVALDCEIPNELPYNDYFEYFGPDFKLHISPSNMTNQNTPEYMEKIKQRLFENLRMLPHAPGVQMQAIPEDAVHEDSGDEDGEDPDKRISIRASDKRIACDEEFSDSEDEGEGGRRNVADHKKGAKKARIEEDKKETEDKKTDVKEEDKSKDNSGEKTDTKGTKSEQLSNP
Protocol: as §1, with “selectivity. […]” for “selectivity.”

[4] = listed as thioacetyl-lysin peptide

With `CSCC[C@H](NC(=O)[C@H](CC(C)C)NC(=O)[C@H](CCCCNC(C)=S)NC(=O)[C@H](CCCCN)NC(=O)[C@H](Cc1c[nH]cn1)NC(=O)[C@H](CCCNC(=N)N)NC(=O)[C@H](CO)NC(=O)[C@@H](NC(=O)[C@H](CO)NC(=O)[C@H](CCC(N)=O)NC(=O)CNC(=O)[C@H](CCCCN)NC(=O)[C@@H](N)CCCCN)[C@@H](C)O)C(=O)N[C@@H](Cc1ccccc1)C(=O)N[C@@H](CCCCN)C(=O)N[C@H](C(=O)N[C@@H](CCC(=O)O)C(=O)NCC(=O)O)[C@@H](C)O` [thioacetyl-lysine p53 peptide, H2N-KKGQSTSRHK(ThAcK)LMFKTEG-COOH] the “dethioacetylation by HeLa nuclear extracts” value [1] was “no detectable dethioacetylation”, the “dethioacetylation by HeLa nuclear extracts” value ([1]; listed as thioacetyl-lysine peptide) was “did not serve as a substrate” and the “dethioacetylation by HDAC1” value [2] was “no detectable dethioacetylation”. For the same compound, the “dethioacetylation by HDAC1” value [2, 4] was “did not serve as a substrate”, the “dethioacetylation by HDAC2” value [3] was “no detectable dethioacetylation” and the “dethioacetylation by HDAC2” value [3, 4] was “did not serve as a substrate”.
With AcNH—RH(AcK)—(AcK)—CONH2 the “kobs (deacetylation by HeLa nuclear extracts)” value [1] was 0.29±0.02 uM/(min·4 uL of the nuclear extracts).
AcNH—RH(ThAcK)(ThAcK)—CONH2 was tested, and the “dethioacetylation by HeLa nuclear extracts” value [1] was “no detectable dethioacetylation”.
For “acetyl-lysine p53 peptide: human p53 C-terminal peptide (amino acid residue 372-389) containing Nε-acetyl-lysine at the 382 position (KKGQSTSRHKK(Ac)LMFKTEG; UniProt P04637 372-389, looked up, fragment)”, the “kobs (deacetylation by HeLa nuclear extracts)” value [1] was 0.23±0.01 uM/(min·4 uL of the nuclear extracts), the substrate turnover ([1]; 4 uL of the HeLa nuclear extracts (9 mg of protein per mL)) was 2.3% and the substrate turnover ([1]; 12 uL of the HeLa nuclear extracts (9 mg of protein per mL)) was 6.5%. For the same compound, the “kobs (deacetylation by HDAC1)” value ([2]; purified HDAC1, at 2 h) was 0.41 ± 0.23 min⁻¹ and the “kobs (deacetylation by HDAC2)” value ([3]; purified HDAC2, at 30 min) was 6.78 ± 2.39 min⁻¹.
